The subject of data set [1] is T-type Ca^2+ channels (LVA Ca^2+ current) in DRG neurons. The experiment in a line: LVA (T-type) Ca2+ current, whole-cell patch clamp, cultured small-diameter DRG neurons. It counts as cell-based, rat. To be noted: 1 μM; mean ± SEM, n = 7; SEM. As for the experimental part:
(§1) DRG neurons from adult male Sprague–Dawley rats (170–180 g) were dissociated as previously described ([13], [29]) and cultured in DMEM supplemented with GlutaMax I, 10% fetal calf serum, penicillin (50 U/ml), and streptomycin (50 μg/ml) on glass coverslips that were coated with poly-D-lysine for 2–5 days in a humidified incubator (37°C, 5% CO2). No growth factors were added to the culture media. HEK 293 cells were cultured in the same DMEM media; cells were passaged every 2 days. Human NK1 receptor (GenBank accession No. AY462098) complementary DNA (cDNA) was from the Missouri Science and Technology cDNA Resource Center. WtCaV3.1 (GenBank accession No. AF027984), wtCaV3.2 (GenBank accession No. AF051946), CaV3.1Q172H, and CaV3.2H191Q were kindly provided by Dr E. Perez-Reyes (University of Virginia). HEK293 cells were transfected using Lipofectamine 2000 (Invitrogen) according to the manufacturer's instructions. ST101 was synthesized in house; Z944 was from Toronto Research Chemicals; PTX was from Enzo Life Science; and FluoZin-3AM was from Life Technologies. All other chemicals were from Sigma.
All recordings were made using Multiclamp 700B amplifier in combination with pCLAMP 10.4 software (Molecular Devices). Voltage-clamp recordings from DRG neurons were made using whole-cell patch clamp. The standard bath solution contained the following (in mM): 150 TEA-Cl; 2.5 CsCl; 2.5 CaCl2; 10 HEPES; 0.5 MgCl2; and 10 glucose (pH 7.4 adjusted with CsOH). The standard pipette solution contained the following (in mM): 110 CsCl; 3 MgCl2; 10 EGTA; 10 HEPES; 3 Mg-ATP; and 0.6 GTP (pH 7.4 adjusted with CsOH). The access resistance was typically within 4–8 MΩ. T-type calcium currents (LVA) were measured by 50 ms square voltage pulses to −40 mV from a holding potential of −90 mV. HVA currents were measured by 200 ms square voltage pulses to 0 mV from a holding potential of −90 mV.
where y is the current inhibition; A1 and A2 are the maximum and minimum effects, respectively; x is the S9SP concentration; and nH is the Hill coefficient.
(The patch-clamp technique gives a direct electrical read-out from membranes.)

Data set [2] deals with high-voltage-activated (HVA) Ca^2+ currents in DRG neurons. The experiment in a line: HVA Ca2+ current, whole-cell patch clamp, DRG neurons. It counts as cell-based, rat. To be noted: 1 μM. As for the experimental part: as §1, with “ST101 was synthesized in house; Z944 was from Toronto Research Chemicals; PTX was from Enzo Life Science; and FluoZin-3AM was from Life Technologies. All other chemicals were from Sigma.” left out
All recordings were made using Multiclamp 700B amplifier in combination with pCLAMP 10.4 software (Molecular Devices). […] T-type calcium currents (LVA) were measured by 50 ms square voltage pulses to −40 mV from a holding potential of −90 mV. HVA currents were measured by 200 ms square voltage pulses to 0 mV from a holding potential of −90 mV.

Data set [3] deals with rat hind paw. The experiment in a line: Hargreaves test, paw withdrawal latency to noxious heat. To be noted: hind-paw injection 50 μl; 0.005–0.5 nmol/site; 8 min after injection. It counts as in vivo. As for the experimental part:
For measurement of thermal hyperalgesia, the change in the latency of hind-paw withdrawal in response to noxious heat was recorded using the Hargreaves’ plantar method (Ugo Basile) at 8 min after the hind-paw injection of drugs; the heat source was set to 25% of the maximal intensity.

For data set [4], the system named is rat hind paw. The experiment in a line: von Frey test. Type of data set: in vivo. The conditions noted are these: 50 μl; 0.5 nmol/site; filaments 2–15 g; 8 min after injection. As for the experimental part:
For measurement of sensitivity to gentle touch and mechanical hyperalgesia, two methods were used. (i) Cotton swab test was performed as previously described ([53]). Briefly, rats were allowed to acclimate in a cage with a wire mesh bottom for at least 30 min and then were manually probed with a “cotton swab” pulled from a Q-tip (to approximately three times the original size). A swab was applied in a sweeping motion underneath the rats’ paws, and the withdrawal responses were recorded. Five sweeps were applied in each test, with at least 10 s between each sweep; withdrawal score was calculated as a percentage of positive responses. (ii) The von Frey test was performed using a calibrated range of filaments with different bending forces (2, 4, 6, 8, 10, and 15 g; Stoelting Co.). A single filament was applied perpendicularly to the plantar surface of the hind paw for five times, with an interval of 5 s, and it was scored for withdrawal responses. Each force was probed five times, the number of withdrawals out of five trials was counted, and the percentage of withdrawal responses was calculated. Both types of assays were performed 8 min after the hind-paw drug injection.

Data set [5] concerns rat hind paw. The experiment in a line: BK-induced nocifensive behavior, pre-injection protocol. Type of data set: in vivo. To be noted: for BK-induced nociception: 5 min before BK 10 nmol/site. The procedure:
Sprague–Dawley rats (body weight, 170–180 g) were grouped randomly and allowed to acclimate for at least 30 min in a transparent observation chamber before the experiment. Animals received a 50-μl intraplantar injection of ST101 (0.001–10 nmol/site), BK (10 nmol/site), RTG (1–10 nmol/site), Z944 (0.05–5 nmol/site), SP (0.5–5 nmol/site), or saline, respectively, into the right hind paw. For evaluation of the acute “spontaneous” pain, animals were video-recorded for 30 min after the injection and protective (“nocifensive”) behavior was analyzed as time spent licking, biting, lifting, and flinching the injected paw. The analyses were performed by an observer who was unaware of treatment allocations. In the pre-injection experiments, the right hind paw of the animal received a pre-injection of 50 μl Z944 (0.05–0.5 nmol/site), RTG (1–10 nmol/site), SP (0.5 nmol/site), Z944 (0.05–0.5 nmol/site)+RTG (1 nmol/site), or saline; 5 min later, on the same paw, the animal received a further 50-μl injection of BK (10 nmol/site) together with the pre-injection drug mix. Nocifensive behavior was analyzed as described earlier.
The in vivo CaV3.2 knock-down was performed as described earlier ([3]) by using the same ODN sequences that were synthesized by SBS Genetech. AS ODNs had the following sequence: […]. The mismatch ODNs of the following sequence were used as a negative control: […]. The mismatch ODN was not complementary to any known nucleotide sequence. ODNs were reconstituted in saline before injection. ODNs (12.5 μg/rat in 10 μl of saline) or saline were injected intrathecally (i.t.) between the L5 and L6 dorsal spinous processes as described earlier ([3], [42]) under isoflurane anesthesia. The treatment was repeated twice daily for 4 days. The pain tests were performed on the next day after the last injection. After behavioral testing, animals were humanly sacrificed; lumbar DRGs were extracted and analyzed for the knock-down efficiency by comparing the Cacna1h mRNA levels in lumbar (L4 to L6) DRGs of the saline-injected, mismatch ODN-injected, and AS ODN-injected animals using RT-PCR. The same Cacna1h and Gapdh primers as in siRNA experiments were used for RT-PCR.

The test system of another data set is CaV3. To be noted: read-out: IC50, CaV3 inhibition; cited from earlier work. As for the experimental part: The T-type Ca^2+ current is an important regulator of sensory neuron excitability ([10], [17], [18], [20], [23], [24], [51], [71], [75]). […] Z944 (1 μM) inhibited LVA curren ...
Another data set deals with Nav1.5. The conditions noted are these: 1 μM; cited from earlier work.
A further data set concerns hERG channels. To be noted: 1 μM; cited from earlier work.

The structures appear in SMILES notation.

Usually IC50 stands for the point on the concentration scale where inhibition reaches its midpoint.

Regarding `CC(C)(C)NC(=O)CN1CCC(CNC(=O)c2cc(F)cc(Cl)c2)CC1` [Z944, N-[[1-[2-(tert-butylamino)-2-oxoethyl]piperidin-4-yl]methyl]-3-chloro-5-fluorobenzamide], the “inhibition of LVA current” value in data set [1] is on record as 71.4% ± 2.7%. In data set [2], the “effect on HVA current” value was “without a noticeable effect”. For the same compound, the “paw withdrawal latency on radiant heat exposure” value in the data set on rat hind paw [3] is recorded as “significantly increased”. Besides, in the data set on rat hind paw [4], the “response to von Frey filament stimulation” value was “significantly impaired their ability to respond to stimulation”. Moreover, the “nocifensive behavior produced by hind-paw BK injection in saline- and mismatch ODN-injected animals” value with rat hind paw [5] (0.5 nmol/site, BK 10 nmol/site) was “still significantly attenuated”. The BK-induced nociception entry with rat hind paw [5] (pre-injection 0.05 nmol/site) is reported as “not at 0.05 nmol/site”; in the data set on rat hind paw [5] (pre-injection 0.5 nmol/site) it was “significantly attenuated”. The IC50 with CaV3 is ~50 nM. For the same compound, the “effect on Nav1.5” value in the data set on Nav1.5 is recorded as “no significant effect”. Further, the “effect on hERG channels” value in the data set on hERG channels is given as “no significant effect”.

The values above are taken from PMC4971421, “Redox-Dependent Modulation of T-Type Ca^2+ Channels in Sensory Neurons Contributes to Acute Anti-Nociceptive Effect of Substance P” (Antioxidants & Redox Signaling, 2016).
